# How the values were obtained:
# Experiment in all cases: relative viability (nuclei count vs DMSO), 5 days (fraction); higher = more cells survive
# NCI-H2405 = system: NCI-H2405
# Outline: (§1)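 Relative viability was taken as the ratio of nuclei in treated wells to nuclei in vehicle wells. Lung cancer cell lines in 1536-well plates received compounds by pin tool one day after seeding, either one drug alone or a fixed anchor-drug dose plus five library-drug doses (not always all listed) in √10 steps. Nuclei were counted on 4× images after 5 days of treatment, and values are medians of duplicate plates.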
# LC-2-ad = system: LC-2-ad
# Outline: as §1
# HCC-366 = system: HCC-366
# Outline: as §1
# NCI-H2228 = system: NCI-H2228
# Outline: as §1
# NCI-H2347 = system: NCI-H2347
# Outline: as §1
# CAL-12T = system: CAL-12T
# Outline: as §1
# NCI-H1734 = system: NCI-H1734
# Outline: as §1
# SW 1573 = system: SW 1573
# Outline: as §1
# LK-2 = system: LK-2
# Outline: as §1
# NCI-H1993 = system: NCI-H1993
# Outline: as §1
# NCI-H596 = system: NCI-H596
# Outline: as §1
# SK-MES-1 = system: SK-MES-1
# Outline: as §1
# NCI-H2009 = system: NCI-H2009
# Outline: as §1
# RERF-LC-KJ = system: RERF-LC-KJ
# Outline: as §1
# PC-14 = system: PC-14
# Outline: as §1
# HCC-78 = system: HCC-78
# Outline: as §1
# NCI-H2085 = system: NCI-H2085
# Outline: as §1
# EMC-BAC-2 = system: EMC-BAC-2
# Outline: as §1
# NCI-H1355 = system: NCI-H1355
# Outline: as §1
# NCI-H3122 = system: NCI-H3122
# Outline: as §1
# NCI-H838 = system: NCI-H838
# Outline: as §1
# HOP-62 = system: HOP-62
# Outline: as §1
# ChaGo-K-1 = system: ChaGo-K-1
# Outline: as §1
structure (smiles),measurement,setting,value
Cc1cnc(-c2cnc(NCCNc3ccc(C#N)cn3)nc2-c2ccc(Cl)cc2Cl)[nH]1 + Nc1nc2[nH]cc(CCc3ccc(C(=O)N[C@@H](CCC(=O)O)C(=O)O)cc3)c2c(=O)[nH]1 [Pemetrexed] (partner 0.2 µM),relative viability,NCI-H2405; first compound 0.08 µM,1.09
same,relative viability,NCI-H2405; first compound 0.253 µM,1.06
same,relative viability,NCI-H2405; first compound 0.8 µM,1.04
same,relative viability,NCI-H2405; first compound 2.53 µM,0.468
same,relative viability,LC-2-ad; first compound 0.08 µM,0.276
same,relative viability,LC-2-ad; first compound 0.8 µM,0.252
same,relative viability,LC-2-ad; first compound 2.53 µM,0.247
same,relative viability,HCC-366; first compound 0.08 µM,0.161
same,relative viability,HCC-366; first compound 0.253 µM,0.137
same,relative viability,HCC-366; first compound 0.8 µM,0.133
same,relative viability,HCC-366; first compound 2.53 µM,0.126
same,relative viability,NCI-H2228; first compound 0.08 µM,0.36
same,relative viability,NCI-H2228; first compound 0.8 µM,0.386
same,relative viability,NCI-H2228; first compound 2.53 µM,0.288
same,relative viability,NCI-H2347; first compound 0.08 µM,0.44
same,relative viability,NCI-H2347; first compound 0.253 µM,0.42
same,relative viability,NCI-H2347; first compound 0.8 µM,0.398
same,relative viability,NCI-H2347; first compound 2.53 µM,0.431
same,relative viability,CAL-12T; first compound 0.08 µM,1.19
same,relative viability,CAL-12T; first compound 0.253 µM,1.04
same,relative viability,CAL-12T; first compound 0.8 µM,1.17
same,relative viability,CAL-12T; first compound 2.53 µM,0.919
same,relative viability,NCI-H1734; first compound 0.08 µM,0.445
same,relative viability,NCI-H1734; first compound 0.253 µM,0.371
same,relative viability,NCI-H1734; first compound 0.8 µM,0.395
same,relative viability,NCI-H1734; first compound 2.53 µM,0.323
same,relative viability,SW 1573; first compound 0.08 µM,1.06
same,relative viability,SW 1573; first compound 0.253 µM,0.797
same,relative viability,SW 1573; first compound 0.8 µM,0.551
same,relative viability,SW 1573; first compound 2.53 µM,0.364
same,relative viability,LK-2; first compound 0.08 µM,0.242
same,relative viability,LK-2; first compound 0.253 µM,0.252
same,relative viability,LK-2; first compound 2.53 µM,0.253
same,relative viability,NCI-H1993; first compound 0.08 µM,0.6
same,relative viability,NCI-H1993; first compound 0.253 µM,0.512
same,relative viability,NCI-H1993; first compound 0.8 µM,0.535
same,relative viability,NCI-H1993; first compound 2.53 µM,0.519
same,relative viability,NCI-H596; first compound 0.08 µM,0.531
same,relative viability,NCI-H596; first compound 0.253 µM,0.485
same,relative viability,NCI-H596; first compound 0.8 µM,0.49
same,relative viability,NCI-H596; first compound 2.53 µM,0.53
same,relative viability,SK-MES-1; first compound 0.08 µM,0.932
same,relative viability,SK-MES-1; first compound 0.253 µM,0.895
same,relative viability,SK-MES-1; first compound 0.8 µM,0.977
same,relative viability,SK-MES-1; first compound 2.53 µM,0.99
same,relative viability,NCI-H2009; first compound 0.08 µM,0.966
same,relative viability,NCI-H2009; first compound 0.253 µM,0.983
same,relative viability,NCI-H2009; first compound 0.8 µM,0.982
same,relative viability,NCI-H2009; first compound 2.53 µM,0.95
same,relative viability,RERF-LC-KJ; first compound 0.08 µM,0.496
same,relative viability,RERF-LC-KJ; first compound 0.253 µM,0.458
same,relative viability,RERF-LC-KJ; first compound 0.8 µM,0.4
same,relative viability,RERF-LC-KJ; first compound 2.53 µM,0.424
same,relative viability,PC-14; first compound 0.08 µM,0.122
same,relative viability,PC-14; first compound 0.253 µM,0.127
same,relative viability,PC-14; first compound 0.8 µM,0.129
same,relative viability,PC-14; first compound 2.53 µM,0.152
same,relative viability,HCC-78; first compound 0.08 µM,0.893
same,relative viability,HCC-78; first compound 0.253 µM,0.839
same,relative viability,HCC-78; first compound 0.8 µM,0.897
same,relative viability,HCC-78; first compound 2.53 µM,0.938
same,relative viability,NCI-H2085; first compound 0.08 µM,1.01
same,relative viability,NCI-H2085; first compound 0.253 µM,0.852
same,relative viability,NCI-H2085; first compound 0.8 µM,0.885
same,relative viability,NCI-H2085; first compound 2.53 µM,0.955
same,relative viability,EMC-BAC-2; first compound 0.08 µM,0.419
same,relative viability,EMC-BAC-2; first compound 0.253 µM,0.43
same,relative viability,EMC-BAC-2; first compound 0.8 µM,0.393
same,relative viability,EMC-BAC-2; first compound 2.53 µM,0.368
same,relative viability,NCI-H1355; first compound 0.08 µM,1.06
same,relative viability,NCI-H1355; first compound 0.253 µM,0.907
same,relative viability,NCI-H1355; first compound 0.8 µM,0.991
same,relative viability,NCI-H1355; first compound 2.53 µM,0.915
same,relative viability,NCI-H3122; first compound 0.08 µM,0.201
same,relative viability,NCI-H3122; first compound 0.8 µM,0.183
same,relative viability,NCI-H3122; first compound 2.53 µM,0.174
same,relative viability,NCI-H838; first compound 0.08 µM,0.249
same,relative viability,NCI-H838; first compound 0.253 µM,0.247
same,relative viability,NCI-H838; first compound 0.8 µM,0.236
same,relative viability,NCI-H838; first compound 2.53 µM,0.243
same,relative viability,HOP-62; first compound 0.08 µM,0.26
same,relative viability,HOP-62; first compound 0.253 µM,0.339
same,relative viability,HOP-62; first compound 0.8 µM,0.312
same,relative viability,HOP-62; first compound 2.53 µM,0.236
same,relative viability,ChaGo-K-1; first compound 0.08 µM,0.252
same,relative viability,ChaGo-K-1; first compound 0.253 µM,0.265
same,relative viability,ChaGo-K-1; first compound 0.8 µM,0.259
same,relative viability,ChaGo-K-1; first compound 2.53 µM,0.248

# From the supplement of paper PMC10307832
